Experimental data published in patent publication US10450316B2, “Certain protein kinase inhibitor” (Chongqing Fochon Pharmaceutical Co., Ltd., priority 2015, dated 2019).

Tested on: BE(2)-C cell
Test: Cell proliferation assay (MTS) in BE(2)-C cells
Assay type: cell-based
Settings: Homo sapiens, inhibition of BE(2)-C cell proliferation, 48 h
Outline: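 BE(2)-C cells (3000/well, DMEM + 10% FBS) were treated for 48 h at 37 °C with compound at 1.5–10000 nM in nine concentrations. Viability was measured by MTS (2 h, stopped with SDS) at 490/650 nm, and IC50 was calculated from the dose-response.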

SMILES | IC50 [nM]
Fc1cnc(Nc2ccc(CN3CC4(CCNCC4)C3)cn2)nc1-c1cc(F)c2nc3n(c2c1)[C@H](C(F)(F)F)CC3 [Example 61, (S)-N-(5-((2,7-diazaspiro[3.5]nonan-2-yl)methyl)pyridin-2-yl)-5-fluoro-4-(5-fluoro-1-(trifluoro-methyl)-2,3-dihydro-1H-benzo[d]pyrrolo[1,2-a]imidazol-7-yl)pyrimidin-2-amine] | > 100
CN1CCC2(CC1)CN(Cc1ccc(Nc3ncc(F)c(-c4cc(F)c5nc6n(c5c4)[C@H](C(F)(F)F)CC6)n3)nc1)C2 [Example 62, (S)-5-fluoro-4-(5-fluoro-1-(trifluoromethyl)-2,3-dihydro-1H-benzo[d]pyrrolo[1,2-a]imidazol-7-yl)-N-(5-((7-methyl-2,7-diazaspiro[3.5]nonan-2-yl)methyl)pyridin-2-yl)pyrimidin-2-amine] | 10 to 100
CCN1CCC2(CC1)CN(Cc1ccc(Nc3ncc(F)c(-c4cc(F)c5nc6n(c5c4)[C@H](C(F)(F)F)CC6)n3)nc1)C2 [Example 63, (S)-N-(5-((7-ethyl-2,7-diazaspiro[3.5]nonan-2-yl)methyl)pyridin-2-yl)-5-fluoro-4-(5-fluoro-1-(trifluoromethyl)-2,3-dihydro-1H-benzo[d]pyrrolo[1,2-a]imidazol-7-yl)pyrimidin-2-amine] | 10 to 100
Fc1cnc(Nc2ccc(CN3CCC4(CC3)CNC4)cn2)nc1-c1cc(F)c2nc3n(c2c1)[C@H](C(F)(F)F)CC3 [Example 64, (S)-N-(5-((2,7-diazaspiro[3.5]nonan-7-yl)methyl)pyridin-2-yl)-5-fluoro-4-(5-fluoro-1-(trifluoro-methyl)-2,3-dihydro-1H-benzo[d]pyrrolo[1,2-a]imidazol-7-yl)pyrimidin-2-amine] | > 100
CN1CC2(CCN(Cc3ccc(Nc4ncc(F)c(-c5cc(F)c6nc7n(c6c5)[C@H](C(F)(F)F)CC7)n4)nc3)CC2)C1 [Example 65, (S)-5-fluoro-4-(5-fluoro-1-(trifluoromethyl)-2,3-dihydro-1H-benzo[d]pyrrolo[1,2-a]imidazol-7-yl)-N-(5-((2-methyl-2,7-diazaspiro[3.5]nonan-7-yl)methyl)pyridin-2-yl)pyrimidin-2-amine] | 10 to 100
CCN1CC2(CCN(Cc3ccc(Nc4ncc(F)c(-c5cc(F)c6nc7n(c6c5)[C@H](C(F)(F)F)CC7)n4)nc3)CC2)C1 [Example 66] | 10 to 100
Fc1cnc(Nc2ccc(CN3CC4(CNC4)C3)cn2)nc1-c1cc(F)c2nc3n(c2c1)[C@H](C(F)(F)F)CC3 [Example 67, (S)-N-(5-((2,6-diazaspiro[3.3]heptan-2-yl)methyl)pyridin-2-yl)-5-fluoro-4-(5-fluoro-1-(trifluoromethyl)-2,3-dihydro-1H-benzo[d]pyrrolo[1,2-a]imidazol-7-yl)pyrimidin-2-amine] | > 100
CN1CC2(C1)CN(Cc1ccc(Nc3ncc(F)c(-c4cc(F)c5nc6n(c5c4)[C@H](C(F)(F)F)CC6)n3)nc1)C2 [Example 68, (S)-5-fluoro-4-(5-fluoro-1-(trifluoromethyl)-2,3-dihydro-1H-benzo[d]pyrrolo[1,2-a]imidazol-7-yl)-N-(5-((6-methyl-2,6-diazaspiro[3.3]heptan-2-yl)methyl)pyridin-2-yl)pyrimidin-2-amine] | 10 to 100
CCN1CC2(C1)CN(Cc1ccc(Nc3ncc(F)c(-c4cc(F)c5nc6n(c5c4)[C@H](C(F)(F)F)CC6)n3)nc1)C2 [Example 69, (S)-N-(5-((6-ethyl-2,6-diazaspiro[3.3]heptan-2-yl)methyl)pyridin-2-yl)-5-fluoro-4-(5-fluoro-1-(trifluoromethyl)-2,3-dihydro-1H-benzo[d]pyrrolo[1,2-a]imidazol-7-yl)pyrimidin-2-amine] | 10 to 100
Fc1cnc(Nc2ccc(CN3CCC4(CCNCC4)CC3)cn2)nc1-c1cc(F)c2nc3n(c2c1)[C@H](C(F)(F)F)CC3 [Example 70, (S)-N-(5-((3,9-diazaspiro[5.5]undecan-3-yl)methyl)pyridin-2-yl)-5-fluoro-4-(5-fluoro-1-(trifluoromethyl)-2,3-dihydro-1H-benzo[d]pyrrolo[1,2-a]imidazol-7-yl)pyrimidin-2-amine] | > 1000
